Where two headings read alike, the source gives them in different places.
How the values were obtained:
[1] = 7-day repeated-dose PK in rats; assay type: in vivo, Sprague Dawley rats; conditions: rat, plasma
Experimental: Groups of Sprague Dawley rats (n = 5/sex/group; n = 3/sex/TK group) were orally administered ZB716 (20% PG, 5% Solutol, and 75% of 40% HP-β-CD in DI water) at dose levels of 10, 100, and 400 mg/kg/day for 7 days. […] Systemic exposure, expressed as Cmax and AUClast values, increased with dose in a less than dose-proportional manner on days 1 and 7 (Figure 2). A slight gender difference was observed; generally, systemic exposures were higher in females than in males (male/female AUClast ratio = 0.442:0.883). Accumulation was observed only in male animals given 400 mg/kg/day.
Four-to-six-week-old Sprague Dawley rats (Crl: CD (SD)) (SPF/VAF) were purchased from Beijing Vital River Laboratory Animal Technology, Co. Ltd.). Six-month-old beagle dogs were purchased from Beijing Marshall Biotechnology Co. Ltd. Animals were quarantined/acclimated for 2–6 weeks prior to dose initiation. Both Sprague Dawley rats and beagle dogs were given oral administration of ZB716 (20% PG, 5% Solutol, and 75% of 40% HP-β-CD in water) at different dose levels. After treatment with the test articles, whole blood was collected from each study animal by puncture of the tail vein (0.4 mL of whole blood from rats) and/or the peripheral vein (0.6 mL of whole blood from dogs) into tubes containing K2EDTA at each timepoint: pre-dose, and 0.5, 1, 2, 4, 8, and 24 h post-dose. The plasma samples were divided into 2 aliquots (approximately equal in volume) and stored frozen at −75 ± 15 °C within 2 h of the collection until analysis at Pharmaron, China.
The stock solution of ZB716 (5.0 mg/mL) and ZB716-d6 (1 mg/mL) in ACN:DI Water = 1:1 was prepared and stored at −20 ± 5 °C. The desired serial concentrations of working reference analyte solutions were achieved by diluting a stock analyte solution with 50% acetonitrile (0.1% formic acid) in water solution. The bioanalytical LC–MS/MS method was validated for quantitative determination of ZB716 in Sprague Dawley rat plasma and beagle dog plasma, with acceptable selectivity, sensitivity, calibration curve, precision, and accuracy. This method is applicable for the determination of ZB716 in Sprague Dawley rat plasma and beagle dog plasma, with a lower limit of quantification of 20.0 ng/mL, and an upper limit of quantification of 10,000 ng/mL.
Five microliters of diluted supernatant was injected into the LC–MS/MS system (Shimadzu LC30AD HPLC system with a SynergiTM 4 μm Fusion-RP 80 Å (50 × 2 mm) column using gradient elution and a Triple Quad 5500 mass spectrometer) for quantitative analysis. The mobile phases used were 0.1% formic acid in deionized water and 0.1% formic acid in acetonitrile. The pharmacokinetic parameters T1/2 (the biological half-life), Cmax (maximal concentration), Tmax (time at which Cmax is observed), and AUC (area under the plasma concentration–time curve) were calculated from the plasma concentration versus time data using WinNonlin (Phoenix^TM, version 8.1, Mountain View, CA, USA). All PK studies were conducted by Pharmaron in Beijing, China.

CYP1A2 = target: T1, CYP1A2 (Homo sapiens, UniProt P05177); test: CYP inhibition in human liver microsomes, CYP1A2; assay type: in vitro ADME; conditions: HLM, marker substrate Phenacetin
T1 sequence (P05177 1-516): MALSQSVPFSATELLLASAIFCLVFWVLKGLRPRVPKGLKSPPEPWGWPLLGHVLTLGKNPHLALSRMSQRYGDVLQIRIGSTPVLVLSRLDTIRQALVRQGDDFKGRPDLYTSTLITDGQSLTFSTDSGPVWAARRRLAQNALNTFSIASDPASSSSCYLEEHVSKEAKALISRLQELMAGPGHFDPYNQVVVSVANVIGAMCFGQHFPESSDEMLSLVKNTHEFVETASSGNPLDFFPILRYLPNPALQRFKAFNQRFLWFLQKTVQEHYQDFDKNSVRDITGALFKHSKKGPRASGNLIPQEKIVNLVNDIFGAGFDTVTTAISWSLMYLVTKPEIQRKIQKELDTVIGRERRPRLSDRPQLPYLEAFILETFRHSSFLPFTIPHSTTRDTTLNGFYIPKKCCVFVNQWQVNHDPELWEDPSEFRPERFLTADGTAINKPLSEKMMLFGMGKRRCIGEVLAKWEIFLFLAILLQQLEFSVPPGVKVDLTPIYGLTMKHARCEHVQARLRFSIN
Experimental: . The inhibition of CYP2B6 and 3A4 (when midazolam was used as the substrate) by ZB716 was not observed. The inhibitory potential of ZB716 on human CYP enzyme activities appears relatively low.
The final concentrations of ZB716 in the incubation system were 0, 0.05, 0.15, 0.5, 1.5, 5, and 15 µM (final organic solvent concentration ≤ 1%). […] . […] The concentrations of the isoform-specific metabolites derived from marker substrates were measured by UPLC–MS/MS. The IC50 values were calculated from the percentages of the rate of the metabolite formation relative to non-inhibited controls vs. the concentrations of ZB716 or positive control inhibitors. All incubations were performed in triplicate. The mean of the enzyme activity (% of non-inhibited control) for each concentration was plotted against the log inhibitor concentration, and fitted to an IC50 curve.

[2] = female, Sprague Dawley (Crl: CD (SD)), po, 400 mg/kg/day, day 1, PO 400 mg/kg/day, F
[3] = female, Sprague Dawley, po, 10 mg/kg/day, day 1, PO 10 mg/kg/day, F
[4] = female, Sprague Dawley, po, 10 mg/kg/day, day 7, PO 10 mg/kg/day, F
[5] = female, Sprague Dawley, po, 100 mg/kg/day, day 7, PO 100 mg/kg/day, F
[6] = female, Sprague Dawley, po, 400 mg/kg/day, day 7, PO 400 mg/kg/day, F
[7] = male, Sprague Dawley (Crl: CD (SD)), po, 10 mg/kg/day, day 7, PO 10 mg/kg/day, M
[8] = male, Sprague Dawley (Crl: CD (SD)), po, 400 mg/kg/day, day 1, PO 400 mg/kg/day, M
[9] = male, Sprague Dawley, po, 10 mg/kg/day, day 1, PO 10 mg/kg/day, M
[10] = male, Sprague Dawley, po, 100 mg/kg/day, day 1, PO 100 mg/kg/day, M
[11] = male, Sprague Dawley, po, 100 mg/kg/day, day 7, PO 100 mg/kg/day, M
[12] = male, Sprague Dawley, po, 400 mg/kg/day, day 7, PO 400 mg/kg/day, M

C[C@]12CC[C@@H]3c4ccc(B(O)O)cc4C[C@@H](CCCCCCCCC[S+]([O-])CCCC(F)(F)C(F)(F)F)[C@H]3[C@@H]1CC[C@@H]2O (stereo partly drawn) [ZB716, fulvestrant-3-boronic acid]
Tmax ([1]; both sexes, Sprague Dawley, oral, 100 mg/kg/day, 10 and 100 mg/kg/day, day 1 and day 7, mostly, read-out: Tmax): 30 to 60 min | Tmax ([1]; both sexes, Sprague Dawley, oral, 400 mg/kg/day, day 1 and day 7, read-out: Tmax): ≤ 480 min | AUC(0-t) ([1]; female, Sprague Dawley (Crl: CD (SD)), po, 100 mg/kg/day, day 1, PO 100 mg/kg/day, F): 26700 ng·h/mL | AUC(0-t) [1, 2]: 27900 ng·h/mL | Cmax [1, 2]: 2770 ng/mL | Tmax ([1]; female, Sprague Dawley (Crl: CD (SD)), po, 400 mg/kg/day, day 1, PO 400 mg/kg/day, F, read-out: Tmax (median)): 480 min | AUC(0-t) [1, 3]: 1760 ng·h/mL | Cmax [1, 3]: 459 ng/mL | Tmax ([1]; female, Sprague Dawley, po, 10 mg/kg/day, day 1, PO 10 mg/kg/day, F, read-out: Tmax (median)): 30 min | AUC(0-t) [1, 4]: 2820 ng·h/mL | Cmax [1, 4]: 710 ng/mL | Tmax ([1]; female, Sprague Dawley, po, 10 mg/kg/day, day 7, PO 10 mg/kg/day, F, read-out: Tmax (median)): 30 min | Cmax ([1]; female, Sprague Dawley, po, 100 mg/kg/day, day 1, PO 100 mg/kg/day, F): 3350 ng/mL | Tmax ([1]; female, Sprague Dawley, po, 100 mg/kg/day, day 1, PO 100 mg/kg/day, F, read-out: Tmax (median)): 60 min | AUC(0-t) [1, 5]: 20700 ng·h/mL | Cmax [1, 5]: 2750 ng/mL | Tmax ([1]; female, Sprague Dawley, po, 100 mg/kg/day, day 7, PO 100 mg/kg/day, F, read-out: Tmax (median)): 30 min | AUC(0-t) [1, 6]: 37100 ng·h/mL | Cmax [1, 6]: 3710 ng/mL | Tmax ([1]; female, Sprague Dawley, po, 400 mg/kg/day, day 7, PO 400 mg/kg/day, F, read-out: Tmax (median)): 30 min | AUC(0-t) [1, 7]: 2260 ng·h/mL | Cmax [1, 7]: 322 ng/mL | Tmax ([1]; male, Sprague Dawley (Crl: CD (SD)), po, 10 mg/kg/day, day 7, PO 10 mg/kg/day, M, read-out: Tmax (median)): 60 min | AUC(0-t) [1, 8]: 15200 ng·h/mL | Cmax [1, 8]: 1920 ng/mL | Tmax ([1]; male, Sprague Dawley (Crl: CD (SD)), po, 400 mg/kg/day, day 1, PO 400 mg/kg/day, M, read-out: Tmax (median)): 480 min | AUC(0-t) [1, 9]: 1320 ng·h/mL | Cmax [1, 9]: 365 ng/mL | Tmax ([1]; male, Sprague Dawley, po, 10 mg/kg/day, day 1, PO 10 mg/kg/day, M, read-out: Tmax (median)): 30 min | AUC(0-t) [1, 10]: 11800 ng·h/mL | Cmax [1, 10]: 1420 ng/mL | Tmax ([1]; male, Sprague Dawley, po, 100 mg/kg/day, day 1, PO 100 mg/kg/day, M, read-out: Tmax (median)): 30 min | AUC(0-t) [1, 11]: 12900 ng·h/mL | Cmax [1, 11]: 1610 ng/mL | Tmax ([1]; male, Sprague Dawley, po, 100 mg/kg/day, day 7, PO 100 mg/kg/day, M, read-out: Tmax (median)): 30 min | AUC(0-t) [1, 12]: 32700 ng·h/mL | Cmax [1, 12]: 2340 ng/mL | Tmax ([1]; male, Sprague Dawley, po, 400 mg/kg/day, day 7, PO 400 mg/kg/day, M, read-out: Tmax (median)): 480 min | IC50 (CYP1A2): > 15 µM

Source: publication PMC8400955 (Pharmaceuticals, 2021)
